Key:
Assay type in all cases: functional
Mus musculus [1] = assay: Tested for antiinflammatory activity on mouse type II collagen arthritis as Paw swelling of all animals in each group on day 30 at intraperitoneal dose of 9 mg/kg
Mus musculus [2] = assay: Tested for antiinflammatory activity on mouse type II collagen arthritis as Paw swelling of all animals in each group on day 37 at intraperitoneal dose of 9 mg/kg
Mus musculus [3] = assay: Tested for antiinflammatory activity on mouse type II collagen arthritis as Paw swelling of all animals in each group on day 37 at intraperitoneal dose of 4.5 mg/kg
Mus musculus [4] = assay: Incidence of disease (mouse type II collagen) was scored as the percentage of animals within each experimental group that exhibited joint or limb inflammation on day 37 at intraperitoneal dose of 4.5 mg/kg
Mus musculus [5] = assay: Tested for antiinflammatory activity on mouse type II collagen arthritis as Paw swelling of all animals in each group on day 23 at intraperitoneal dose of 4.5 mg/kg
Mus musculus [6] = assay: Incidence of disease (mouse type II collagen) was scored as the percentage of animals within each experimental group that exhibited joint or limb inflammation on day 30 at intraperitoneal dose of 4.5 mg/kg
Mus musculus [7] = assay: Incidence of disease (mouse type II collagen) was scored as the percentage of animals within each experimental group that exhibited joint or limb inflammation on day 44 at intraperitoneal dose of 4.5 mg/kg
Mus musculus [8] = assay: Tested for antiinflammatory activity on mouse type II collagen arthritis as Paw swelling of all animals in each group on day 44 at intraperitoneal dose of 9 mg/kg
Mus musculus [9] = assay: Incidence of disease (mouse type II collagen) was scored as the percentage of animals within each experimental group that exhibited joint or limb inflammation on day 30 at intraperitoneal dose of 9 mg/kg
Mus musculus [10] = assay: Tested for antiinflammatory activity on mouse type II collagen arthritis as Paw swelling of all animals in each group on day 30 at intraperitoneal dose of 4.5 mg/kg
Mus musculus [11] = assay: Tested for antiinflammatory activity on mouse type II collagen arthritis as Paw swelling of all animals in each group on day 23 at intraperitoneal dose of 9 mg/kg
Mus musculus [12] = assay: Incidence of disease (mouse type II collagen) was scored as the percentage of animals within each experimental group that exhibited joint or limb inflammation on day 23 at intraperitoneal dose of 9 mg/kg
Mus musculus [13] = assay: Incidence of disease (mouse type II collagen) was scored as the percentage of animals within each experimental group that exhibited joint or limb inflammation on day 23 at intraperitoneal dose of 4.5 mg/kg
Mus musculus [14] = assay: Incidence of disease (mouse type II collagen) was scored as the percentage of animals within each experimental group that exhibited joint or limb inflammation on day 44 at intraperitoneal dose of 9 mg/kg
Mus musculus [15] = assay: Incidence of disease (mouse type II collagen) was scored as the percentage of animals within each experimental group that exhibited joint or limb inflammation on day 37 at intraperitoneal dose of 9 mg/kg
Mus musculus [16] = assay: Tested for antiinflammatory activity on mouse type II collagen arthritis as Paw swelling of all animals in each group on day 44 at intraperitoneal dose of 4.5 mg/kg

In the case of `CCC(Cc1cnc2nc(N)nc(N)c2c1C)c1ccc(C(=O)NC(CCC(=O)O)C(=O)O)cc1` (stereo unspecified), the Paw swelling (Mus musculus [1]) is reported as 2.45 mm, the Paw swelling (Mus musculus [2]) is reported as 3.09 mm and the Paw swelling (Mus musculus [3]) is reported as 2.32 mm. The Animals (Mus musculus [4]) was 38%, the Paw swelling (Mus musculus [5]) was 2.1 mm and the Animals (Mus musculus [6]) was 12%. It also gave an Animals (Mus musculus [7]) of 75%, a Paw swelling (Mus musculus [8]) of 2.99 mm and an Animals (Mus musculus [9]) of 50%. The Paw swelling (Mus musculus [10]) was 2.18 mm, the Paw swelling (Mus musculus [11]) was 2.12 mm and the Animals (Mus musculus [12]) was 0%. It also gave an Animals (Mus musculus [13]) of 0%, an Animals (Mus musculus [14]) of 88% and an Animals (Mus musculus [15]) of 88%. The Paw swelling (Mus musculus [16]) was 2.68 mm.

From ChEMBL document CHEMBL1129930, “Analogues of methotrexate in rheumatoid arthritis. 2. Effects of 5-deazaaminopterin, 5,10-dideazaaminopterin, and analogues on type II collagen-induced arthritis in mice” (J Med Chem, 1997)
